Experiment: Determination of hygroscopicity (high humidity test)
Assay type: physicochemical
Protocol: The hygroscopicity of the compound of the invention can be tested by a standard hygroscopicity test method. For example, the compound is stored in a sealed vessel at room temperature at a relative humidity of 92.5%, 80% or 75%, and the change in moisture content of the compound is tested by sampling at regular intervals.
At the 5th and 10th days, the products were sampled and determined in aspect of important items relating to stability investigation. […] If the weight gain of a product due to moisture absorption was more than 5%, the product was further experimented according to the same method under a relative humidity of 75%±5%. If the weight gain of a product due to moisture absorption was less than 5%, and other items thereof under investigation met the relevant requirements, no more experiment was needed. The humidity-constant condition could be achieved by placing a saturated saline solution at the lower part of a sealed vessel, e.g., a desiccator, and a NaCl saturated solution (15.5-60° C., a relative humidity of 75%±1%) or a KNO3 saturated solution (25° C., a relative humidity of 92.5%) may be selected according to the requirement of different relative humidity.

[1] = Relative humidity 92.5%, 25° C.

| SMILES | Hygroscopicity at the 5th day (Relative humidity 75%) | Hygroscopicity at the 10th day (Relative humidity 75%) | Hygroscopicity at the 5th day [1] | Hygroscopicity at the 10th day [1] |
| --- | --- | --- | --- | --- |
| CCC(CC)[C@H](NC(C)=O)[C@H]1[C@H](O)[C@@H](C(=O)O)C[C@H]1NC(=N)N.O [Monohydrate, (1S,2S,3S,4R)-3-[(1S)-1-acetylamino-2-ethyl-butyl]-4-guanidino-2-hydroxy-cyclopentyl-1-carboxylic acid monohydrate] | 2.41% | 2.77% | 2.83% | 3.35% |
| CCC(CC)[C@H](NC(C)=O)[C@H]1[C@H](O)[C@@H](C(=O)O)C[C@H]1NC(=N)N.CCC(CC)[C@H](NC(C)=O)[C@H]1[C@H](O)[C@@H](C(=O)O)C[C@H]1NC(=N)N.O.O.O [Sesquihydrate, (1S,2S,3S,4R)-3-[(1S)-1-acetylamino-2-ethyl-butyl]-4-guanidino-2-hydroxy-cyclopentyl-1-carboxylic acid sesquihydrate] | 4.01% | 6.89% | 4.48% | 7.33% |
| CCC(CC)[C@H](NC(C)=O)[C@H]1[C@H](O)[C@@H](C(=O)O)C[C@H]1NC(=N)N.O.O.O.O.O.O [Hexahydrate, (1S,2S,3S,4R)-3-[(1S)-1-acetylamino-2-ethyl-butyl]-4-guanidino-2-hydroxy-cyclopentyl-1-carboxylic acid hexahydrate] | 3.86% | 6.33% | 4.37% | 9.96% |
